Read-outs that look alike come from different tables or passages of the source.
Tested on: recombinant human CFTR carrying the premature stop codon (PTC) mutation R1162X
Assay: CFTR-PTC mutant translation readthrough, Nanoluc tagged CFTR luminescence (R1162X cell line)
Assay type: cell-based
Conditions: for CFTR R1162X ACTIVITY Fold 10 μM G-418: fold over 10 μM G-418, in combination with G418
Protocol: 16HBE human bronchial epithelial cells (stably over-expressing recombinant human CFTR carrying the premature stop codon (PTC) mutation G542X or R1162X along with a Nanoluc tag incorporated into the CFTR channel within extracellular loop 4 in G542X cell line or C-terminus end in the R1162X cell line were seeded at 0.01×10^6 cells/well and grown in Minimal Essential Medium (MEM) as monolayers in 384 well plates and incubated at 37° C. with 5% CO2. Media was changed every other day until day of experiment. Agents to be evaluated were made up in separate 384 well, polypropylene plates at a 2X the final desired test concentration. Test agent 10-point concentration response curves were constructed using the Labcyte Echo 555 acoustic dispenser. Test agents were typically tested at a max final test concentrations of 50 μM with sequential 2-fold lower concentrations below this in the absence or presence of a fixed 10 μM concentration of the aminoglycoside G418 made up in MEM growth media (reduced Serum Media+HEPES Buffer+2.4 g/L Sodium Bicarbonate+L-Glutamine containing CFTR corrector VX-809 (3 μM)). Treatment with 10 μM G418 alone produced approximately 10% of the response observed with a maximally effective concentration of G418 (typically 125-250 μM). Test agent effects in presence of 10 μM G418 were compared to control wells on the plate containing a maximally effective concentration of G418 (typically 125-250 μM) made up in the same media. 25 ul of test agents/control solutions were transferred from the compound plate to the cell plate, which already contained 25 ul/well of cell plating media, using an Integra Viaflo 384. Cell plates were incubated with the compounds for 48 hours, at which time they were processed using Nanoluc luminescence Kit (Promega Nano-Glo Live Cell Assay System) to measure CFTR-PTC mutant translation readthrough. Luminescence was measured as follows. Cell plates were removed from the incubator and allowed to equilibrate to room temperature for 20 minutes. Media was removed from all wells and the plates were blotted to remove excess remaining volume. Nano-Glo Live Cell Substrate was diluted 1:20 in the appropriate amount of Nano-Glo LCS Dilution Buffer to accommodate the number of cell plates being tested. The substrate/dilution buffer mix was then diluted 1:3 with MEM media to make the appropriate volume for the number of plates being tested. The substrate/dilution buffer/OptiMEM mix was added across the Nanoluc testing cell plates and the plates were read for luminescence signal immediately. Test agent effects on CFTR translation readthrough was determined by normalizing any observed increase in luminescence induced by 48 hours pretreatment with test compound to the magnitude of luminescence increase produced by pretreatment with a maximally effective concentration of the reference readthrough enhancing agent G418 (125-250 μM).

[1] = in combination with G418, 16HBE cells, read-out: CFTR R1162X ACTIVITY EC50
[2] = read-out: CFTR R1162X ACTIVITY EC50, in combination with G418, 16HBE cells

SMILES	CFTR R1162X ACTIVITY Fold 10 μM G-418	EC50 [1] [µM]	EC50 [2] [µM]
CCc1cccc(C(F)(F)F)c1COc1cnc(N2C[C@@H](CO)NC2=O)nc1	C′ (C′ = <5X)	1 to 10	–
O=C1CN(c2ccc(OCc3c(C(F)(F)F)cccc3C(F)(F)F)cn2)C(=O)N1 [1-(5-{[2,6-bis(trifluoromethyl)phenyl]methoxy}pyridin-2-yl)imidazolidine-2,4-dione]	A′ (A′ = ≥10X)	< 1	–
O=C1CN(c2cnc(OCc3c(Cl)cccc3C(F)(F)F)cn2)C(=O)N1	C′ (C′ = <5X)	1 to 10	–
FC(F)(F)c1cccc(Cl)c1COc1cnc(N2CCn3c(nnc3C(F)(F)F)C2)nc1	C′ (C′ = <5X)	1 to 10	–
O=C1N[C@H](CO)CN1c1ncc(OCc2c(C(F)(F)F)cccc2C(F)(F)F)cn1 [(4S)-1-(5-{[2,6-bis(trifluoromethyl)phenyl]methoxy}pyrimidin-2-yl)-4-(hydroxymethyl)imidazolidin-2-one]	C′ (C′ = <5X)	> 10	–
CC(=O)N1CCN(c2ncc(OCc3c(Cl)cccc3C(F)(F)F)cn2)C[C@@H]1CN	B′ (B′ = ≥5X to <10X)	1 to 10	–
NC(=O)c1ccn(-c2ncc(OCc3c(C(F)(F)F)cccc3C(F)(F)F)cn2)n1	A′ (A′ = ≥10X)	< 1	–
O=C1CN(c2ccc(OCc3c(Cl)cccc3Cl)nn2)C(=O)N1 [Compound 351, 1-{6-[(2,6-dichlorophenyl)methoxy]pyridazin-3-yl}imidazolidine-2,4-dione]	C′ (C′ = <5X)	1 to 10	–
O=C1OC(CO)CN1c1ncc(OCc2c(Cl)ccc(F)c2Cl)cn1 (centres unmarked)	C′ (C′ = <5X)	1 to 10	–
O=C1N[C@H](CO)CN1c1ccc(OCc2c(C(F)(F)F)cccc2C(F)(F)F)cn1	C′ (C′ = <5X)	< 1	–
Cc1c(F)ccc(C(F)(F)F)c1COc1ccc(-n2cnc(CO)n2)cc1	C′ (C′ = <5X)	< 1	–
OCc1ncn(-c2ncc(OCc3c(C(F)(F)F)ccc(F)c3Cl)cn2)n1	A′ (A′ = ≥10X)	1 to 10	–
Cc1ccc(F)c(C(F)(F)F)c1COc1ccc(-n2cnc(CO)n2)cc1	A′ (A′ = ≥10X)	< 1	–
O=C1CN(c2cnc(OCc3c(Cl)cccc3Cl)cn2)C(=O)N1 [Compound 336, 1-{5-[(2,6-dichlorophenyl)methoxy]pyrazin-2-yl}imidazolidine-2,4-dione]	C′ (C′ = <5X)	1 to 10	–
OCc1cn(-c2ncc(OCc3c(C(F)(F)F)ccc(F)c3Cl)cn2)cn1	C′ (C′ = <5X)	< 1	–
OCc1cn(-c2ncc(OCc3c(Cl)cc(F)cc3Cl)cn2)cn1	C′ (C′ = <5X)	1 to 10	–
O=C1CN(c2ccc(OCc3c(Cl)ccc(F)c3C(F)(F)F)cn2)C(=O)N1	A′ (A′ = ≥10X)	< 1	–
Cc1cccc(C(F)(F)F)c1COc1cnc(N2CCN(C)[C@@H](CN)C2)nc1	C′ (C′ = <5X)	> 10	–
N#CC1(O)CN(c2ncc(OCc3c(Cl)cccc3C(F)(F)F)cn2)C1	A′ (A′ = ≥10X)	< 1	–
OCc1cn(-c2ncc(OCc3c(C(F)(F)F)cccc3C(F)(F)F)cn2)cn1	A′ (A′ = ≥10X)	< 1	–
O=C1CN(c2ncc(OCc3c(Cl)cccc3C(F)(F)F)cn2)C1 [Compound 355, 1-(5-{[2-chloro-6-(trifluoromethyl)phenyl]methoxy}pyrimidin-2-yl)azetidin-3-one]	A′ (A′ = ≥10X)	< 1	–
OCc1ncn(-c2ncc(CCc3c(Cl)cccc3Cl)cn2)n1	C′ (C′ = <5X)	1 to 10	–

SMILES	CFTR R1162X ACTIVITY Fold 10 μM G-418	EC50 [1] [µM]	EC50 [2] [µM]
O=C1N[C@H](CO)CN1c1ccc(OCc2c(Cl)cccc2C(F)(F)F)cn1	C′ (C′ = <5X)	< 1	–
OCc1ccn(-c2ncc(OCc3c(C(F)(F)F)cccc3C(F)(F)F)cn2)n1	A′ (A′ = ≥10X)	< 1	–
Cc1cccc(C(F)(F)F)c1COc1cnc(N2C[C@@H](CO)NC2=O)nc1 [(4S)-4-(hydroxymethyl)-1-(5-{[2-methyl-6-(trifluoromethyl)phenyl]methoxy}pyrimidin-2-yl)imidazolidin-2-one]	C′ (C′ = <5X)	1 to 10	–
O=C1CN(c2ccc(OCc3c(Cl)cccc3Cl)cn2)C(=O)N1 [Compound 332, 1-{5-[(2,6-dichlorophenyl)methoxy]pyridin-2-yl}imidazolidine-2,4-dione]	C′ (C′ = <5X)	< 1	–
O=C1OC(CO)CN1c1ccc(OCc2c(Cl)ccc(F)c2Cl)cn1 (centres unmarked) [3-{5-[(2,6-dichloro-3-fluorophenyl)methoxy]pyridin-2-yl}-5-(hydroxymethyl)-1,3-oxazolidin-2-one]	C′ (C′ = <5X)	1 to 10	–
Cc1cccc(C(F)(F)F)c1COc1cnc(-n2ncc(CO)n2)nc1	C′ (C′ = <5X)	< 1	–
OCc1ccn(-c2ncc(OCc3c(Cl)cccc3C(F)(F)F)cn2)n1	C′ (C′ = <5X)	< 1	–
OCc1cnn(-c2ncc(OCc3c(Cl)ccc(F)c3Cl)cn2)n1	C′ (C′ = <5X)	< 1	–
[2H]C([2H])(O)c1ncn(-c2ncc(OC([2H])([2H])c3c(Cl)cccc3C(F)(F)F)cn2)n1	C′ (C′ = <5X)	1 to 10	–
[2H]C([2H])(O)c1ccn(-c2ncc(OC([2H])([2H])c3c(Cl)cccc3Cl)cn2)n1	C′ (C′ = <5X)	1 to 10	–
O=C1CN(c2ccc(OCc3c(C(F)(F)F)ccc(F)c3Cl)cn2)C(=O)N1	C′ (C′ = <5X)	< 1	–
OCc1ccn(-c2cnc(OCc3c(Cl)cccc3Cl)cn2)n1 [Example 339, (1-{5-[(2,6-dichlorophenyl)methoxy]pyrazin-2-yl}pyrazol-3-yl) methanol]	C′ (C′ = <5X)	–	1 to 10
O=C1CN(c2ccc(OCc3c(Cl)ccc(F)c3Cl)cn2)C(=O)N1 [Compound 341, 1-{5-[(2,6-dichloro-3-fluorophenyl)methoxy]pyridin-2-yl}imidazolidine-2,4-dione]	C′ (C′ = <5X)	< 1	–
OCc1cncn1-c1ncc(OCc2c(Cl)cccc2Cl)cn1 [Example 362, (3-{5-[(2,6-dichlorophenyl)methoxy]pyrimidin-2-yl}imidazol-4-yl) methanol]	A′ (A′ = ≥10X)	–	1 to 10
Cc1cccc(C(F)(F)F)c1COc1cnc(-n2ccc(C(N)=O)n2)nc1	C′ (C′ = <5X)	< 1	–
OCc1ncn(-c2ncc(OCc3c(Cl)ccc(F)c3C(F)(F)F)cn2)n1	A′ (A′ = ≥10X)	< 1	–
OCc1ncn(-c2ccc(OCc3c(C(F)(F)F)ccc(F)c3Cl)cn2)n1	C′ (C′ = <5X)	< 1	–
O=C1CN(c2ccc(OCc3c(Cl)cc(F)cc3Cl)cn2)C(=O)N1 [Compound 349, 1-{5-[(2,6-dichloro-4-fluorophenyl)methoxy]pyridin-2-yl}imidazolidine-2,4-dione]	C′ (C′ = <5X)	1 to 10	–
OCc1cn(-c2ncc(OCc3c(Cl)ccc(F)c3Cl)cn2)cn1	C′ (C′ = <5X)	< 1	–
OCc1ncn(-c2ccc(OCc3c(Cl)cccc3Cl)cn2)n1 [Example 337, (1-{5-[(2,6-dichlorophenyl)methoxy]pyridin-2-yl}-1,2,4-triazol-3-yl) methanol]	C′ (C′ = <5X)	< 1	–
OCc1cn(-c2ncc(OCc3c(Cl)ccc(F)c3Cl)cn2)nn1	C′ (C′ = <5X)	1 to 10	–

Reference: patent US20250228865A1, “COMPOUNDS FOR ENHANCING READ THROUGH OF GENES CONTAINING PREMATURE TERMINATION CODONS AND METHODS FOR MAKING AND USING THE SAME” (Sanofi US Services Inc., priority 2022, published 2025)
